According to publication PMC6553477 (Journal of pharmaceutical sciences, 2018):
pEC50: −log10 of the molar value. Where “and” joins values, the source holds several entries; their conditions need not be identical. Equal values may be shown once. Read-outs that look alike come from different tables or passages of the source. Marks after values point to notes of the source that are not given here.

What was measured:
[1] = Drug association efficiency to DcNP by equilibrium dialysis; assay type: physicochemical; details: ATV-RTV-TFV DcNP, DSPC-DSPE-mPEG2000 (9:1)
[2] = Mechanism-based pharmacokinetic; assay type: in vivo, Macaca nemestrina; details: MBPK model
[3] = in vivo, sc; for time concentrations were sustained in plasma: macaque (Macaca nemestrina)
[4] = in vivo
HIV [5] = details: read-out: in vitro effective concentration that produces 90% of the maximal effect (EC90); reported in vitro; cited from earlier work
HIV-1 protease = details: reported; cited from earlier work
[6] = PBMC intracellular drug concentrations after single subcutaneous injection; details: for fold higher AUCPBMC, DcNP versus free drug: ATV-RTV-TFV DcNP compared with free form; for fold higher AUCPBMC, DcNP versus free drug / AUC: macaques; for AUC: monkey, sc, AUCPBMC, ATV-RTV-TFV DcNP, single subcutaneous dose, geometric mean (95% CI)
[7] = for MBRT / CL/F: ATV-RTV-TFV DcNP; for MBRT / half-life: plasma; for half-life: monkey, in vivo
[8] = for concentration at 192 h: concentration in LNMCs at 192 h after injection
[9] = in vivo, sc, cited from earlier work
[10] = monkey, in vivo, sc; cited from earlier work
in vivo = details: Macaca nemestrina (macaque), sc, LNMC/plasma ratio 192 h
[11] = cited from earlier work; for LNMC concentration 24 h / LNMC concentration 192 h: in vivo, sc
HIV [12] = details: read-out: in vivo EC50; nonhuman primates; cited from earlier work
[13] = ATV-RTV-TFV DcNP versus TLC-ART 101
[14] = macaque (Macaca nemestrina), sc
[15] = ATV-RTV-TFV DcNP compared with free form, macaques
[16] = single subcutaneous dose, macaques, geometric mean (95% CI)
[17] = sc, Terminal t1/2, ATV-RTV-TFV DcNP, single subcutaneous dose, macaques, geometric mean (95% CI)
[18] = ATV-RTV-TFV DcNP compared with free form, macaques, 24 h
[19] = ATV-RTV-TFV DcNP, subcutaneous, macaques, 24 h
[20] = TLC-ART 101, subcutaneous, macaques, 24 h
[21] = TLC-ART 101, subcutaneous, macaques, 192 h

COC(=O)N[C@H](C(=O)N[C@@H](Cc1ccccc1)[C@@H](O)CN(Cc1ccc(-c2ccccn2)cc1)NC(=O)[C@@H](NC(=O)OC)C(C)(C)C)C(C)(C)C [ATV, atazanavir]
% Association to DcNP [1]: 99 ± 8.2% and 99 ± 8%
fold higher V5_DcNP for ATV than LPV [2, 13]: 180 fold
fold lower k75 for ATV than LPV [2, 13]: 18 fold
K07, rate of elimination ([2]; Atazanavir-DcNP): 0.29 (-) 1/h
V5_DcNP, central compartmental apparent volume for DcNP ([2]; Atazanavir-DcNP): 1259^a (569-1680) L/kg
V7_Free, central compartmental apparent volume for free drug ([2]; Atazanavir-DcNP): 113 (97-133) L/kg
k21, rate of DcNP absorption into the first delayed compartment ([2]; Atazanavir-DcNP): 0.15 (0.1-0.3) 1/h
k31, rate of DcNP absorption into the second delayed compartment ([2]; Atazanavir-DcNP): 0.05 (-) 1/h
k41, rate of DcNP absorption into the third delayed compartment ([2]; Atazanavir-DcNP): 0.7 (-) 1/h
k75, rate of degradation of DcNP into free drug between central compartments ([2]; Atazanavir-DcNP): 0.04^a (0.01-0.06) 1/h
tlag1, delayed constant of delayed compartment 1 ([2]; Atazanavir-DcNP): 0.25 (-) h
tlag2, delayed constant of delayed compartment 2 ([2]; Atazanavir-DcNP): 16 (9-25) h
tlag3, delayed constant of delayed compartment 3 ([2]; Atazanavir-DcNP): 440 (336-520) h
time concentrations were sustained in plasma [3]: up to 14 days
time drug concentration in PBMCs was sustained [4, 14]: up to 336 h
EC90 (HIV [5]): 13 nM
fold higher antiretroviral activity compared with several other commercialized protease inhibitors (HIV-1 protease): 2- to 20 fold
fold higher AUCPBMC, DcNP versus free drug [6]: 33 fold
fold higher PBMC exposure (AUCPBMC) of ATV than LPV ([6]; ATV-RTV-TFV DcNP versus TLC-ART 101, macaques): 5.5 fold
AUC ([6]; PBMC (intracellular)): 435 µM·h
fold higher plasma AUC, DcNP versus free drug [7, 15]: 5 fold
fold longer MBRT, DcNP versus free drug [7, 15]: 116 fold
fold lower CL/F, DcNP versus free drug [7, 15]: 4 fold
MBRT [7, 16]: 650 (370-1230) h
CL/F [7, 16]: 11^a (8-13) L/[h·kg]
fold higher CL/F, free ATV compared with free LPV ([7]; free drugs, macaques): 9 fold
fold lower AUC, free ATV compared with free LPV ([7]; free drugs, macaques): 8 fold
half-life [7, 17]: 19.5 days
half-life ([7]; terminal half-life, DcNP ATV, macaques (Table 2)): ~20 days
fold higher intracellular LNMC concentration at 24 h, DcNP versus free drug [8, 18]: 3 fold
fold lower LNMC-to-plasma ratio at 24 h, DcNP versus free drug [8, 18]: 4 fold
fold higher intracellular LNMC concentration at 192 h, DcNP versus free drug ([8]; ATV-RTV-TFV DcNP compared with free form, macaques, 192 h): 3 fold
intracellular LNMC concentration at 192 h ([8]; ATV-RTV-TFV DcNP, macaques, 192 h): 0.09 mμM
LNMC concentration 24 h [8, 19]: 0.10 (0.04-0.24) μM
LNMC/PBMC ratio 192 h ([8]; ATV-RTV-TFV DcNP, subcutaneous, macaques, 192 h, n=2): 2.4^b
intracellular LNMC concentration at 192 h ([8]; free drug, macaques, 192 h): 0.03 mμM
concentration at 24 h ([8]; macaque (Macaca nemestrina), lymph node mononuclear cells (LNMC), sc, concentration in LNMCs at 24 h after injection, ATV-RTV-TFV DcNP, subcutaneous, primates, 24 h): 100 nM
concentration at 192 h ([8]; macaque (Macaca nemestrina), lymph node mononuclear cells (LNMC), sc, ATV-RTV-TFV DcNP, subcutaneous, primates, 192 h): 90 nM

Cc1cccc(C)c1OCC(=O)N[C@@H](Cc1ccccc1)[C@@H](O)C[C@H](Cc1ccccc1)NC(=O)[C@H](C(C)C)N1CCCNC1=O [LPV, lopinavir]
AUC (plasma, extrapolated to infinity) [9]: 4.8 (4.2-4.6)^c h·μM
CL/F ([9]; monkey): 5 L/[h·kg]
Terminal t1/2 ([9]; monkey): 8.7 (5.3-10.4)^c h
AUCPBMC [10]: 22 (10-33)^c h·μM

CC(C)c1nc(CN(C)C(=O)N[C@H](C(=O)N[C@@H](Cc2ccccc2)C[C@H](O)[C@H](Cc2ccccc2)NC(=O)OCc2cncs2)C(C)C)cs1 [RTV, ritonavir]
% Association to DcNP [1]: 92 ± 7.1% and 92 ± 7%
K07, rate of elimination ([2]; Atazanavir-DcNP): 0.08 (0.03-0.12) 1/h
V5_DcNP, central compartmental apparent volume for DcNP ([2]; Atazanavir-DcNP): 67 (22-94) L/kg
V7_Free, central compartmental apparent volume for free drug ([2]; Atazanavir-DcNP): 79 (56-122) L/kg
k21, rate of DcNP absorption into the first delayed compartment ([2]; Atazanavir-DcNP): 0.40 (0.35-0.46) 1/h
k31, rate of DcNP absorption into the second delayed compartment ([2]; Atazanavir-DcNP): 0.05 (-) 1/h
k41, rate of DcNP absorption into the third delayed compartment ([2]; Atazanavir-DcNP): 0.5 (-) 1/h
k75, rate of degradation of DcNP into free drug between central compartments ([2]; Atazanavir-DcNP): 0.19 (0.06-0.26) 1/h
tlag1, delayed constant of delayed compartment 1 ([2]; Atazanavir-DcNP): 0.3 (-) h
tlag2, delayed constant of delayed compartment 2 ([2]; Atazanavir-DcNP): 41 (35-46) h
tlag3, delayed constant of delayed compartment 3 ([2]; Atazanavir-DcNP): 186 (169-199) h
time concentrations were sustained in plasma [3]: up to 14 days
last PBMC concentration timepoint detected ([4]; macaque (Macaca nemestrina)): 48 h
time drug concentration in PBMCs was sustained [4, 14]: up to 336 h
Kp at 192 h (in vivo): 23
LNMC concentration 24 h [11]: 6.3^a (4.4-8.5) μM
LNMC concentration 192 h [11]: 1.00 (0.06-2.00) μM
AUC ([6]; PBMC (intracellular)): 85 µM·h
AUC ([6]; PBMC, PBMC intracellular): 79 µM·h
MBRT [7, 16]: 110 (46-266) h
CL/F [7, 16]: 4 L/[h·kg]
half-life [7, 17]: 3.04 days
LNMC concentration 24 h [8, 19]: 0.40^a (0.06-3.00) μM
LNMC concentration ([8]; RTV in ATV-RTV-TFV DcNP, macaques, unit as printed in text (Table 4: 24 h)): 0.4 mM

C[C@H](Cn1cnc2c(N)ncnc21)OCP(=O)(O)O [TFV, 9-(2-Phosphonyl-methoxypropyly)adenine]
% Association to DcNP [1]: 10 ± 0.8% and 10 ± 1%
K07, rate of elimination ([2]; Atazanavir-DcNP): 0.4 (0.08-2) 1/h
V5_DcNP, central compartmental apparent volume for DcNP ([2]; Atazanavir-DcNP): 0.7 (0.5-0.9) L/kg
V7_Free, central compartmental apparent volume for free drug ([2]; Atazanavir-DcNP): 1.1 (0.8-1.3) L/kg
k21, rate of DcNP absorption into the first delayed compartment ([2]; Atazanavir-DcNP): 0.05 (-) 1/h
k31, rate of DcNP absorption into the second delayed compartment ([2]; Atazanavir-DcNP): 0.1 (-) 1/h
k41, rate of DcNP absorption into the third delayed compartment ([2]; Atazanavir-DcNP): 0.15 (-) 1/h
k75, rate of degradation of DcNP into free drug between central compartments ([2]; Atazanavir-DcNP): 0.026 (0.009-0.03) 1/h
k76, rate of absorption of free drug ([2]; Atazanavir-DcNP): 1.7 (0.6-2.5) 1/h
k78, rate from periphery to central free compartment ([2]; Atazanavir-DcNP): 0.06 (-) 1/h
k87, rate from central free compartment to periphery ([2]; Atazanavir-DcNP): 0.02 (-) 1/h
tlag1, delayed constant of delayed compartment 1 ([2]; Atazanavir-DcNP): 1 h
tlag2, delayed constant of delayed compartment 2 ([2]; Atazanavir-DcNP): 23 (-) h
tlag3, delayed constant of delayed compartment 3 ([2]; Atazanavir-DcNP): 106 (76-132) h
time concentrations were sustained in plasma [3]: up to 14 days
AUC (plasma, extrapolated to infinity) ([3]; monkey): 3057 (1029-9078) h·μM
time drug concentration in PBMCs was sustained [4, 14]: up to 192 h
AUCPBMC ([4]; monkey, sc): 1134 (588-1554) h·μM
pEC50 (HIV [12]): 7.31
LNMC/PBMC ratio 24 h [11, 20]: 0.93 (0.39-2.3)
LNMC/plasma ratio 24 h [11, 20]: 3 (1.5-5.3)
LNMC/PBMC ratio 192 h [11, 21]: 4.4 (0.45-340.0)
LNMC/plasma ratio 192 h [11, 21]: 6.8 (1.4-75)
LNMC concentration 24 h [11]: 25 (14-47) μM
LNMC concentration 192 h [11]: 19 (3.6-280) μM
fold higher AUCPBMC, DcNP versus free drug [6]: 5 fold
fold higher plasma AUC, DcNP versus free drug [7, 15]: 35 fold
fold longer MBRT, DcNP versus free drug [7, 15]: 41 fold
fold longer apparent t1/2, DcNP versus free drug [7, 15]: 7 fold
fold lower CL/F, DcNP versus free drug [7, 15]: 23 fold
MBRT [7, 16]: 128 (65-254) h
CL/F [7, 16]: 0.004 (0.002-0.015) L/[h·kg]
half-life [7, 17]: 2.75 days
LNMC/PBMC ratio 24 h ([8]; free drug combination, subcutaneous, macaques, 24 h): 1.8^d
concentration at 192 h ([8]; macaque (Macaca nemestrina), in vivo, sc, ATV-RTV-TFV DcNP, subcutaneous, primates, 192 h): 130 nM
